# Measurements taken from patent publication EP1282414B1, “FELBAMATE DERIVED COMPOUNDS FOR TREATING NEUROPATHIC PAIN” (University of Virginia Patent Foundation, priority 2000, dated 2001).
# Marks after values point to notes of the source that are not given here.
# Legend:
# [1] = system: pentylenetetrazol; experiment: Subcutaneous Metrazol seizure test (scMET), rats p.o.; format: in vivo, Sprague-Dawley rats; conditions: po, rat
# From the text: The fluoro derivatives synthesized were submitted to the National Institute of Neurological Disorders and Stroke (NINDS) for evaluation in a standard panel of assays. Two convulsant tests (MES and scMET), and a toxicity screen (rotorod in mice, positional sense and gait in rats) were employed for evaluating the compounds activity as neuroprotecting agents. These testing procedures are described in detail in Molecular and Cellular Targets for Anti-epileptic Drugs, eds. G. Avanzini, G. Regesta, P. Tanganelli, M. Avoli, 1997, John Libbey & Company Ltd, pp 191-198. The felbamate derivatives were evaluated for anticonvulsant activity following intraperitoneal (i.p.) administration in mice and oral administration in rats.
# This is a model that primarily identifies compounds that raise seizure threshold. With some minor exceptions, the pharmacological profile of the scMET seizure model is consistent with the human condition. […]
# For the MES and scMET tests the data is presented in the form of the number of animals protected by the administered compound / total number of animals tested. […] More extensive quantitative data was also obtained for fluoro felbamate 12 in mice (Table 3) and rats (Table 4).
# [2] = system: focal seizures; experiment: Hippocampal kindling model (kindled rats), i.p.; format: in vivo, adult male Sprague-Dawley rats; set-up: key to Seizure Score ± S.E.M.: Racine seizure score (stage 5 = generalized seizure); conditions: for Number Protected / Number Tested / Afterdischarge Duration (sec) ± S.E.M / Seizure Score ± S.E.M.: i.p.
# From the text: The hippocampal kindling model can be used to evaluate a compound's ability to affect both the expression and acquisition of focal seizures. The hippocampal kindling paradigm as described by Lothman and Williamson (Lothman, 1994) allows the temporal effects of a drug to be evaluated in a single animal. This procedure requires the surgical placement ofbipolar electrodes in the ventral hippocampus of adult male Sprague-Dawley rats. Stage five behavioral seizures are produced by using a stimulus consisting of a 50 Hz, 10 s train of 1 ms biphasic 200 uA pulses delivered every 30 min for 6 hours (12 stimuli per day) on alternating days for a total of 60 stimulations (five stimulus days). Prior to evaluating a candidate's anticonvulsant activity, a drug free control period consisting of supramaximal stimulations are recorded to verify the stability of a stage five generalized seizure.
# A single dose of the candidate compound is then administered intraperitoneally (i.p.), 15 min following the last control stimulation. The anticonvulsant activity of the drug is assessed every 30 min for three to four hours starting 15 min after administering the test material. After each stimulation, individual Racine seizure scores and afterdischarge durations are recorded. Rats are used again in drug trials after four to five drug- and stimulus-free days.
# [3] = system: MES-induced seizure spread; experiment: Maximal Electroshock Seizure (MES) test, mice oral; format: in vivo; conditions: Mus musculus, oral administration
# Method: The MES test is a model for generalized tonic-clonic seizures and is used to identify compounds which prevent seizure spread. The behavioral and electrographic seizures generated in this model are consistent with the human disorder. In the MES test, an electrical stimulus of 0.2 s in duration (50 mA in mice and 150 mA in rat at 60Hz) was delivered via corneal electrodes primed with an electrolyte solution containing an anesthetic agent. Mice were tested at 30 minutes and 4 hours following doses of 30, 100 and 300 mg/kg of test compound. Rats were tested at time intervals between 0.25 and 4 hours following a standard oral dose of 30 mg/kg. Abolition of the hindlimb tonic extensor component indicates the test compound's ability to inhibit MES-induced seizure spread.
# (§1) Toxicity across time doe not occur until dosages of 300mg/kg. […] Quantitative results obtained for fluoro felbamate 12 in mice indicated a MES ED50 of approximately 20 mg/kg with a safety ratio of at least five (see Table 3). Results obtained for oral administration of fluoro felbamate 12 to rats indicated a MES ED50 of about 3 mg/kg with no toxicity at doses up to 500 mg/kg.
# [4] = system: mice; experiment: Toxicity, mice oral; format: in vivo; conditions: oral administration
# Method: Toxicity induced by a compound is detected in mice using the standardized rotorod test described by Dunham & Miya (1957). Untreated control mice, when placed on a 6 r.p.m. rotation rod, can maintain their equilibrium for a prolonged period of time.
# as §1
# [5] = Dose Responses, 25 mg/kg (time not given)
# [6] = Dose Responses, 50 mg/kg (time not given)
# [7] = Dose Responses, 100 mg/kg (time not given)
compound,measurement,setting,value
"NC(=O)OCC(F)(COC(N)=O)c1ccccc1 [fluoro felbamate, 2-Fluoro-2-phenyl-1,3-propanediol dicarbamate]",ED50,[1],> 250 mg/kg
same,change in afterdischarge duration (in words),[2]; 100mg/kg,corresponding decrease
same,change in seizure score (in words),[2]; 100mg/kg,significant drop
same,Number Protected / Number Tested,"[2]; Dose Responses, 25 mg/kg",0/7
same,Afterdischarge Duration (sec) ± S.E.M,[2]; [5],71.43 ± 5.50 s
same,Seizure Score ± S.E.M.,[2]; [5],4.57 ± 0.20
same,Number Protected / Number Tested,"[2]; Dose Responses, 50 mg/kg",3/7
same,Afterdischarge Duration (sec) ± S.E.M,[2]; [6],68.57 ± 20.14 s
same,Seizure Score ± S.E.M.,[2]; [6],2.86 ± 0.83
same,Number Protected / Number Tested,"[2]; Dose Responses, 100 mg/kg",7/8^a
same,Afterdischarge Duration (sec) ± S.E.M,[2]; [7],29.00 ± 10.86 s
same,Seizure Score ± S.E.M.,[2]; [7],1.50 ± 0.57
same,Afterdischarge Duration (sec) ± S.E.M,"[2]; 25 mg/kg, 15 min",77.29 ± 4.91 s
same,Seizure Score ± S.E.M.,"[2]; 25 mg/kg, 15 min",4.86 ± 0.14
same,Afterdischarge Duration (sec) ± S.E.M,"[2]; 25 mg/kg, 45 min",71.43 ± 5.50 s
same,Seizure Score ± S.E.M.,"[2]; 25 mg/kg, 45 min",4.57 ± 0.20
same,Afterdischarge Duration (sec) ± S.E.M,"[2]; 25 mg/kg, 75 min",64.43 ± 11.19 s
same,Seizure Score ± S.E.M.,"[2]; 25 mg/kg, 75 min",4.00 ± 0.69
same,Afterdischarge Duration (sec) ± S.E.M,"[2]; 25 mg/kg, 105 min",70.29 ± 4.85 s
same,Seizure Score ± S.E.M.,"[2]; 25 mg/kg, 105 min",4.57 ± 0.20
same,Afterdischarge Duration (sec) ± S.E.M,"[2]; 25 mg/kg, 135 min",53.86 ± 9.33 s
same,Seizure Score ± S.E.M.,"[2]; 25 mg/kg, 135 min",4.43 ± 0.57
same,Afterdischarge Duration (sec) ± S.E.M,"[2]; 25 mg/kg, 165 min",59.29 ± 3.28 s
same,Seizure Score ± S.E.M.,"[2]; 25 mg/kg, 165 min",4.71 ± 0.18
same,Afterdischarge Duration (sec) ± S.E.M,"[2]; 25 mg/kg, 195 min",54.00 ± 9.62 s
same,Seizure Score ± S.E.M.,"[2]; 25 mg/kg, 195 min",3.86 ± 0.67
same,Afterdischarge Duration (sec) ± S.E.M,"[2]; 25 mg/kg, 225 min",53.29 ± 9.03 s
same,Seizure Score ± S.E.M.,"[2]; 25 mg/kg, 225 min",4.00 ± 0.69
same,Afterdischarge Duration (sec) ± S.E.M,"[2]; 25 mg/kg, 255 min",64.00 ± 3.42 s
same,Seizure Score ± S.E.M.,"[2]; 25 mg/kg, 255 min",4.86 ± 0.14
same,Afterdischarge Duration (sec) ± S.E.M,"[2]; 50 mg/kg, 15 min",67.14 ± 12.39 s
same,Seizure Score ± S.E.M.,"[2]; 50 mg/kg, 15 min",3.86 ± 0.70
same,Afterdischarge Duration (sec) ± S.E.M,"[2]; 50 mg/kg, 45 min",68.57 ± 20.14 s
same,Seizure Score ± S.E.M.,"[2]; 50 mg/kg, 45 min",2.86 ± 0.83
same,Afterdischarge Duration (sec) ± S.E.M,"[2]; 50 mg/kg, 75 min",63.00 ± 17.45 s
same,Seizure Score ± S.E.M.,"[2]; 50 mg/kg, 75 min",3.14 ± 0.83
same,Afterdischarge Duration (sec) ± S.E.M,"[2]; 50 mg/kg, 105 min",60.86 ± 14.93 s
same,Seizure Score ± S.E.M.,"[2]; 50 mg/kg, 105 min",3.43 ± 0.90
same,Afterdischarge Duration (sec) ± S.E.M,"[2]; 50 mg/kg, 135 min",65.00 ± 13.10 s
same,Seizure Score ± S.E.M.,"[2]; 50 mg/kg, 135 min",3.71 ± 0.64
same,Afterdischarge Duration (sec) ± S.E.M,"[2]; 50 mg/kg, 165 min",43.14 ± 14.67 s
same,Seizure Score ± S.E.M.,"[2]; 50 mg/kg, 165 min",2.71 ± 0.97
same,Afterdischarge Duration (sec) ± S.E.M,"[2]; 50 mg/kg, 195 min",52.86 ± 14.59 s
same,Seizure Score ± S.E.M.,"[2]; 50 mg/kg, 195 min",3.14 ± 0.83
same,Afterdischarge Duration (sec) ± S.E.M,"[2]; 50 mg/kg, 225 min",39.86 ± 10.98 s
same,Seizure Score ± S.E.M.,"[2]; 50 mg/kg, 225 min",3.00 ± 0.87
same,Afterdischarge Duration (sec) ± S.E.M,"[2]; 50 mg/kg, 255 min",33.29 ± 11.76 s
same,Seizure Score ± S.E.M.,"[2]; 50 mg/kg, 255 min",2.57 ± 0.72
same,Afterdischarge Duration (sec) ± S.E.M,"[2]; 100 mg/kg, 15 min",40.75 ± 15.74 s
same,Seizure Score ± S.E.M.,"[2]; 100 mg/kg, 15 min",1.75 ± 0.73
same,Afterdischarge Duration (sec) ± S.E.M,"[2]; 100 mg/kg, 45 min",29.00 ± 10.86 s
same,Seizure Score ± S.E.M.,"[2]; 100 mg/kg, 45 min",1.50 ± 0.57
same,Afterdischarge Duration (sec) ± S.E.M,"[2]; 100 mg/kg, 75 min",38.63 ± 12.58 s
same,Seizure Score ± S.E.M.,"[2]; 100 mg/kg, 75 min",1.88 ± 0.67
same,Afterdischarge Duration (sec) ± S.E.M,"[2]; 100 mg/kg, 105 min",53.38 ± 12.59 s
same,Seizure Score ± S.E.M.,"[2]; 100 mg/kg, 105 min",2.38 ± 0.65
same,Afterdischarge Duration (sec) ± S.E.M,"[2]; 100 mg/kg, 135 min",33.63 ± 12.88 s
same,Seizure Score ± S.E.M.,"[2]; 100 mg/kg, 135 min",2.00 ± 0.76
same,Afterdischarge Duration (sec) ± S.E.M,"[2]; 100 mg/kg, 165 min",43.38 ± 12.79 s
same,Seizure Score ± S.E.M.,"[2]; 100 mg/kg, 165 min",2.75 ± 0.65
same,Afterdischarge Duration (sec) ± S.E.M,"[2]; 100 mg/kg, 195 min",45.25 ± 13.33 s
same,Seizure Score ± S.E.M.,"[2]; 100 mg/kg, 195 min",2.25 ± 0.70
same,Afterdischarge Duration (sec) ± S.E.M,"[2]; 100 mg/kg, 225 min",47.38 ± 14.80 s
same,Seizure Score ± S.E.M.,"[2]; 100 mg/kg, 225 min",2.50 ± 0.73
same,Afterdischarge Duration (sec) ± S.E.M,"[2]; 100 mg/kg, 255 min",45.38 ± 13.92 s
same,Seizure Score ± S.E.M.,"[2]; 100 mg/kg, 255 min",2.50 ± 0.65
same,ED50,[3],~27 mg/kg
same,no toxicity at doses up to,[4],up to 218 mg/kg
